Results as given in ChEMBL document CHEMBL1201862, “PubChem BioAssay data set” (2004).
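Step 1: Grow cells in 96-well plates. Step 2: Expose to compound for 48 hours at 5 concentrations. Step 3: Interpolate endpoints linearly; if unreached, use highest concentration. At the GI50, growth is halved.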 Active and inactive are the calls of the source. Rule as the data show it: active = GI50 up to about 1.1 µM and inactive = higher.

What was measured:
Assay in all cases: NCI tumour cell line growth inhibition, 48 h
MDA-MB-231 = tested on: MDA-MB-231
MDA-MB-435 = tested on: MDA-MB-435
BT-549 = tested on: BT-549
DU-145 = tested on: DU-145
MDA-N = tested on: MDA-N
DMS-114 = tested on: DMS-114
HOP-18 = tested on: HOP-18
DLD-1 = tested on: DLD-1
RXF 631 = tested on: RXF 631

| Compound | GI50 (MDA-MB-231) | GI50 (MDA-MB-435) | GI50 (BT-549) | GI50 (DU-145) | GI50 (MDA-N) | GI50 (DMS-114) | GI50 (HOP-18) | GI50 (DLD-1) | GI50 (RXF 631) |
| --- | --- | --- | --- | --- | --- | --- | --- | --- | --- |
| O=C1C[C@H](c2ccccc2)C2(C(=O)c3ccccc3C2=O)[C@H](c2ccccc2)C1 | 9.42 µM (inactive) | > 100 µM (inactive) | 86.9 µM (inactive) | 75 µM (inactive) | 85.7 µM (inactive) | – | – | – | – |
| Cc1[nH]c(-c2ccccc2)c(O)c1C(=O)OC1CC(C)CCC1C(C)C (configuration not stated) | 15.5 µM (inactive) | 14.8 µM (inactive) | 18.4 µM (inactive) | 15.8 µM (inactive) | 16.3 µM (inactive) | – | – | – | – |
| C[C@]12CCC3[C@@H](C[C@H]4OC(=O)[C@@]35CCC(=O)C=C45)C1CCC2=O (some centres not stated) | – | – | – | – | – | > 100 µM (inactive) | > 100 µM (inactive) | > 100 µM (inactive) | – |
| Nc1nc(Cl)cc(NCCCCO)n1 | – | – | – | – | – | > 100 µM (inactive) | – | > 100 µM (inactive) | > 100 µM (inactive) |
| Cc1ccc(NC(=O)C2C(=O)N(c3ccc(C)c(C)c3)C(=O)/C2=N\NC(N)=S)cc1C (configuration not stated) | – | – | – | – | – | – | – | 79.6 µM (inactive) | > 100 µM (inactive) |
| Oc1cc(-c2ccc(Cl)cc2)nc2ncccc12 | 64.6 µM (inactive) | – | > 100 µM (inactive) | > 100 µM (inactive) | – | – | – | – | – |
| Nc1nc(SCCc2ccccc2)nc2nc3c(c(-c4ccccc4)c12)CCCC3 | > 100 µM (inactive) | > 100 µM (inactive) | 42 µM (inactive) | > 100 µM (inactive) | > 100 µM (inactive) | – | – | – | – |
| O=[N+]([O-])/C(C(Cl)=C(Cl)Cl)=C1\Nc2ccccc2O1 | 44.3 µM (inactive) | 36.6 µM (inactive) | – | > 100 µM (inactive) | 45.4 µM (inactive) | – | – | – | – |
| O=P(Nc1ccc(Cl)cc1)(Oc1ccccc1)N(CCCl)CCCl (configuration not stated) | – | – | – | – | – | > 100 µM (inactive) | > 100 µM (inactive) | > 100 µM (inactive) | 63.7 µM (inactive) |
| CC(Oc1ccc(Cl)cc1Cl)C(=O)NN1C(=O)CC(=O)NC1=S (configuration not stated) | > 100 µM (inactive) | > 100 µM (inactive) | > 100 µM (inactive) | > 100 µM (inactive) | > 100 µM (inactive) | – | – | – | – |
| COn1oc(=O)c2ccccc21 | > 100 µM (inactive) | > 100 µM (inactive) | > 100 µM (inactive) | > 100 µM (inactive) | > 100 µM (inactive) | – | – | – | – |
| O=S(O)CCCCCSSc1ccccc1 | – | – | – | – | – | 23.6 µM (inactive) | – | 54.8 µM (inactive) | – |
| CCC1NC(/N=N/c2ccc([N+](=O)[O-])cc2)(P(=O)(OC(C)C)OC(C)C)OC1=O (configuration not stated) | – | – | – | – | – | – | – | > 100 µM (inactive) | – |
| CC(C)(C)c1ccc2c(c1)OP1(Oc3cccc4cccnc34)(O2)Oc2ccc(C(C)(C)C)cc2O1 | – | – | – | – | – | 0.71 µM (active) | 20.4 µM (inactive) | 3.92 µM (inactive) | – |
| C=C1C(O)C2(O)OCC34C(CC5C(C)=CC(=O)C(O)C5(C)C23)OC(=O)C(OC(=O)C/C=C/CCCCCCCC)C14 (configuration not stated) | – | – | – | – | – | 0.02 µM (active) | 0.0776 µM (active) | 0.02 µM (active) | – |
| C[C@@H](NC(=O)[C@@H]1C[C@]1(C)COC(=O)c1cc([N+](=O)[O-])cc([N+](=O)[O-])c1)c1cccc2ccccc12 | > 100 µM (inactive) | > 100 µM (inactive) | > 100 µM (inactive) | > 100 µM (inactive) | > 100 µM (inactive) | – | – | – | – |
| C/C(=C\c1ccccc1)n1c(=O)cc(C)n1C | – | > 100 µM (inactive) | > 100 µM (inactive) | > 100 µM (inactive) | > 100 µM (inactive) | – | – | – | – |
| CSc1nc(NC2OCC(O)C(O)C2O)c(N)c(=O)n1C (configuration not stated) | – | – | – | – | – | – | > 100 µM (inactive) | > 100 µM (inactive) | – |
| O=C(NC(Cc1ccc(I)cc1)C(=O)O)c1cccc(Br)c1 (configuration not stated) | – | – | – | – | – | 48 µM (inactive) | > 82.4 µM (inactive) | > 100 µM (inactive) | – |
